Test [1] deals with bovine PTH induced bone resorption. The experiment in a line: In vitro fetal rat long bone model of bone resorption (45Ca release). The class given is cell-based. The following applies: ^45Ca release from fetal rat long bones, Bovine PTH (1-34) at 1x10^-8M, Day 6. An excerpt: An in vitro fetal rat long bone model was used to study the anti-bone resorptive effect of the compounds of formula (I). Bovine PTH was used to induce bone resorption in vitro. The bone resorptive effects were expressed by the amounts of ^45Ca released from the ^45Ca pre-labelled fetal rat long bones into the culture medium. The inhibitory effect of the compounds of formula (I) against bovine PTH induced bone resorption was expressed as mean percent inhibition ± sem.
^45Ca-prelabelled fetal rat long bones (from forearms) were dissected and cultured in Linbro dishes at 37°C overnight BGJb medium, supplemented with lmg/ml BSA. There were five pairs of bones in each group. The compounds of formula (I) were dissolved in ethanol first, then diluted to various concentrations and added simultaneously with Bovine PTH (1-34) at […] on Day 1. […] The assay was terminated on Day 6 with one media change on Day 3.
At the end of each medium change, the ^45Ca present in the culture medium was counted. The remaining bones were digested with 0.1N HCl and the ^45Ca presented in the bone digest was also counted. The results are expressed as % of the total ^45Ca released from each pair of bones. Bovine PTH at 1x10^-8M induces bone resorption to the maximum level which is set as 100% and this concentration was used as standard. The level of base line bone resorption in the presence of medium only was set as 0%. All compound-treated groups were compared with bovine PTH (1-34) at 1x10^-8M.

Test [2] has as its system release of ^35S-labelled glycosaminoglycans (GAG's) from cartilage explants. The experiment in a line: Inhibition of release of 35S-labelled glycosaminoglycans from cartilage explants. The class given is cell-based. The following applies: Bos taurus; bovine knee joint cartilage explants, release induced by rhIL-1-alpha. How it is done: This assay determines if the compounds of formula (I) inhibit the release of ^35S-labelled glycosaminoglycans (GAG's) from cartilage explants.
Small cartilage explants (3 mm diameter) were prepared from freshly sacrificed bovine knee joints and labeled with ^35SO4. ^35S-labelled glycosaminoglycans (GAG's) are released into the culture medium in response to the addition of rhIL-1-alpha, which induces the expression of chondrocyte matrix metalloproteases (MMP's), including stromelysin and collagenase. The percent inhibition of labeled GAG's was corrected for spontaneous release in the absence of rh1L-1-alpha. Results for each group represent the mean ± the S.E.M. for five explants.

The next test concerns the target STROM. (Homo sapiens, UniProt P08254). The experiment in a line: In vitro enzyme inhibition assay (fluorescence, thiopeptide substrate), STROM. Type of test: biochemical.
The next test has as its target T1, HFC (Homo sapiens, UniProt P03956).
T1 sequence (P03956 100-469): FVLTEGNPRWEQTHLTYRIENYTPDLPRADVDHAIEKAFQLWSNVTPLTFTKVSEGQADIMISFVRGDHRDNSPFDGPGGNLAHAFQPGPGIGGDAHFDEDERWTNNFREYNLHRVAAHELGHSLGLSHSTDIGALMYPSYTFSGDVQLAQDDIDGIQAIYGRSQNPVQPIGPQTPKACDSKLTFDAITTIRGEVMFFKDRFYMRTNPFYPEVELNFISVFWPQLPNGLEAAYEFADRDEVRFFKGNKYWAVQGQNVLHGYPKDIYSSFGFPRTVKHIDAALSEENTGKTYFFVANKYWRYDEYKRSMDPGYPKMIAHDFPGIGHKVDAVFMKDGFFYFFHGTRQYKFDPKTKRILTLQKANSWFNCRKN
The experiment in a line: In vitro enzyme inhibition assay (fluorescence, thiopeptide substrate), HFC. The class given is biochemical.

The results in this text go back to patent EP0726903B1, “MATRIX METALLOPROTEASE INHIBITORS” (SYNTEX (U.S.A.) INC., priority 1993, dated 1995).

Chain of STROM. (P08254 100-477): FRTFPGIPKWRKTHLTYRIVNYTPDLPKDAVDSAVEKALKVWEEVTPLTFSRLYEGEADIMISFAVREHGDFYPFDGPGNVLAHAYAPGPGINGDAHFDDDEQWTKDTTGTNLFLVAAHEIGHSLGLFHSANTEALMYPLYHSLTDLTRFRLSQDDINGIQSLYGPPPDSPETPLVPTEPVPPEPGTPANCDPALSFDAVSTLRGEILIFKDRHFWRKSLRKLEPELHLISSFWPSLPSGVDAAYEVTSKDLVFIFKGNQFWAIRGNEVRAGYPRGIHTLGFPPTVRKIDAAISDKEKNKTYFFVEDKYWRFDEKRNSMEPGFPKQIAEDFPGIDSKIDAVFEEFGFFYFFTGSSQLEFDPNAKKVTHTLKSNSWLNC

As usually defined, the IC50 is the concentration that gives 50% inhibition. Read a high IC50 as weaker potency in that assay. `COC(=O)c1ccc(NC(=O)[C@H](Cc2c[nH]c3ccccc23)NC(=O)C(CC(=O)NO)CC(C)C)cc1` (single isomer, unassigned) [Compound 3, N-(4-methyl-2-(N"-hydroxycarbamoyl)methylpentanoyl)-L-tryptophan-N'-(4-methoxycarbonylphenyl)carboxamide] came in with an IC50 in test [1] of 50 nM. The EC50 is the concentration that produces a half-maximal response. A lower EC50 goes with a more potent agent. `COC(=O)c1ccc(NC(=O)[C@H](CC(C)C)NC(=O)C(CC(=O)NO)CC(C)C)cc1` (stereo partly drawn) [Compound 2, N-(4-methyl-2-(N"-hydroxycarbamoyl)methylpentanoyl)-L-leucine-N'-(4-methoxycarbonylphenyl)carboxamide]: the IC50 in test [1] (144 h) was found to be 270 nM; on STROM., 1.4 nM; at HFC it was 8.4 nM. In addition, the concentration for a half-maximal effect (EC50) in test [2] worked out at 3500 nM.

`COC(=O)c1ccc(NC(=O)[C@H](CCSC)NC(=O)C(CC(C)C)CP(=O)(O)CSc2ccc3ccccc3n2)cc1` (stereo partly drawn) [Compound 1, N-(2-(hydroxy)(quinolin-2-ylthiomethyl)phosphinoylmethyl-4-methylpentanoyl)-L-methionine-N'-(4-methoxycarbonylphenyl)carboxamide]: the IC50 in test [1] is at least 5000 nM. `COC(=O)c1ccc(NC(=O)[C@H](Cc2c[nH]c3ccccc23)NC(=O)C(CC(=O)NO)CC(C)C)cc1` (single isomer, unassigned) [Compound 4, N-(4-methyl-2-(N"-hydroxycarbamoyl)methylpentanoyl)-L-tryptophan-N'-(4-methoxycarbonylphenyl)carboxamide] gave an IC50 in test [1] of at least 5000 nM.
